Results taken from ChEMBL document CHEMBL1201862, “PubChem BioAssay data set” (2004).
Each block holds one molecule with its values, some of them ahead of it. Active and inactive are the calls of the source.

Tests used:
[1] = biological target: T1, Rac GTPase-activating protein 1 (Homo sapiens, UniProt Q9H0H5); assay: blockers of MgcRacGAP-driven Rac1 GTP hydrolysis – biochemical, ADP Hunter fluorescence, primary and confirmatory, confirmation (AID 624330); type: functional
T1 sequence (Q9H0H5 whole entry): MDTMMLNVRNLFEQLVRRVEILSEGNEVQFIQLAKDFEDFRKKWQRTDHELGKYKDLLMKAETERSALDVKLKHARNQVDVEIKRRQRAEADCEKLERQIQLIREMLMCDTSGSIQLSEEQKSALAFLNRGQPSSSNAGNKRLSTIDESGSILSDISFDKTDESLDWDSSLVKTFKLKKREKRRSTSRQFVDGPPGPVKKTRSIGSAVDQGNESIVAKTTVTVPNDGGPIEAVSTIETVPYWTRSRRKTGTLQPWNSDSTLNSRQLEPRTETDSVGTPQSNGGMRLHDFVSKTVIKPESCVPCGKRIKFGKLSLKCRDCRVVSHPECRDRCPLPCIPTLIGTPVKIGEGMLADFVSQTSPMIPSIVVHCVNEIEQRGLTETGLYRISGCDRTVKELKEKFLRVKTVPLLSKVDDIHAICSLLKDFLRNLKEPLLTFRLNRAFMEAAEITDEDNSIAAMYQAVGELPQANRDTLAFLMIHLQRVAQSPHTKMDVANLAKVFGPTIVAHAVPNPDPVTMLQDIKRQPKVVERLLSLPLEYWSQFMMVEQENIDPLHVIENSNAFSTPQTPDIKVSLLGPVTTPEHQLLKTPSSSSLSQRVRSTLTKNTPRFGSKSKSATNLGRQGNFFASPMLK

[2] = viability of uninfected HEp-2 cells – cell-based, HTS, cytotoxicity control for RSV inhibitor project, dose response (AID 2410); type: functional; conditions: human respiratory syncytial virus
[3] = biological target: FAD-linked sulfhydryl oxidase ALR (Homo sapiens, UniProt P55789); assay: ALR-catalysed DTT oxidation blockers – biochemical, H2O2 detection, luminescence, cherry-pick, dose response (AID 493248)
[4] = biological target: T2, Zinc finger protein mex-5 (Caenorhabditis elegans, UniProt Q9XUB2); assay: potency of MEX-5 RNA-binding blockers – biochemical, C. elegans, fluorescence polarization, dose response (AID 1960)
T2 sequence (Q9XUB2 whole entry): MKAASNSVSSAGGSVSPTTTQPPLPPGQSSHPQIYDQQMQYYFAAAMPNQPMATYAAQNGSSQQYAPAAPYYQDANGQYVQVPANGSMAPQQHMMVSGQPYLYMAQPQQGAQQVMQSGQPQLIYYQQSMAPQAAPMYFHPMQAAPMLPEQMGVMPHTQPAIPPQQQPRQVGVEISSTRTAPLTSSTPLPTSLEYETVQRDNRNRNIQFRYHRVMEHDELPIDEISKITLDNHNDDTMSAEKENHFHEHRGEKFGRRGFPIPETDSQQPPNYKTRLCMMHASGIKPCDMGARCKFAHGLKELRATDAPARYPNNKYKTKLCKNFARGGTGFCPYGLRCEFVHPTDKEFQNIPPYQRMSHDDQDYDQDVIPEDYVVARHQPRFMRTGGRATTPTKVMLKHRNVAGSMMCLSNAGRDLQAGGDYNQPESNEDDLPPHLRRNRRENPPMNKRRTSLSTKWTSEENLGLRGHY

[5] = biological target: T3, RNA-binding protein pos-1 (Caenorhabditis elegans, UniProt G5EF15); assay: disruptors of C. elegans POS-1 RNA interaction – biochemical, fluorescence polarization, dose response (AID 1964);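 also: purified POS-1 fused to maltose binding protein made in E. coli; potency of compounds blocking POS-1 binding to fluorescent RNA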
T3 sequence (G5EF15 whole entry): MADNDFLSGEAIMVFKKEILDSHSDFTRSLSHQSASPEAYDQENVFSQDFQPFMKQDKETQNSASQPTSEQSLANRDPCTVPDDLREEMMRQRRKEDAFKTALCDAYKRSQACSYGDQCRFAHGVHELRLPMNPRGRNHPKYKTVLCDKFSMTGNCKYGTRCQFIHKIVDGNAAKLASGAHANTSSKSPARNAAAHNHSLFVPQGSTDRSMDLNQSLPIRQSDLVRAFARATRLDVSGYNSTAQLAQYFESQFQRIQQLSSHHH

Cytochrome P450 2C19 = Cytochrome P450 2C19 (Homo sapiens, UniProt P33261); assay: Cytochrome panel assay with activity outcomes. Panel member name: p450-cyp2c19 Compounds with AC50 equal or less than 10 uM are considered active; type: functional
Cytochrome P450 2D6 = Cytochrome P450 2D6 (Homo sapiens, UniProt P10635);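 also: CYP2D6 member of a cytochrome P450 panel assay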
Streptococcus = assay: GAS UMAA2166 growth inhibition – luminescence, BacTiterGlo, counter-screen for streptokinase expression inhibitor project, dose response (AID 1915); type: functional, organism-based;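 also: potency for reduction of bacterial viability or growth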
[6] = NIH3T3 cell viability loss – ATP luminescence, mouse fibroblasts, counter-screen, dose response (AID 2010); type: functional, cell-based;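 also: cells exposed to compound for about 90 hours before reading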
[7] = tested on: Streptococcus sp. 'group A'; assay: Streptococcus pyogenes SK(-)GAS viability under kanamycin – luminescence, BacTiterGlo, confirmation, counter-screen for streptokinase expression inhibitor project, dose response (AID 1900); type: functional, organism-based
[8] = Trypanosoma cruzi growth suppression in host cells – NIH3T3 host cells, beta-gal luminescence, confirmation (AID 2044); type: functional, cell-based;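 also: intracellular parasites grown in NIH/3T3 mouse fibroblasts as host cells; luminescent beta-galactosidase reporter signal from transgenic T. cruzi replicating inside host cells; inhibitors lower the luminescence signal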

Sequence of FAD-linked sulfhydryl oxidase ALR (P55789 whole entry): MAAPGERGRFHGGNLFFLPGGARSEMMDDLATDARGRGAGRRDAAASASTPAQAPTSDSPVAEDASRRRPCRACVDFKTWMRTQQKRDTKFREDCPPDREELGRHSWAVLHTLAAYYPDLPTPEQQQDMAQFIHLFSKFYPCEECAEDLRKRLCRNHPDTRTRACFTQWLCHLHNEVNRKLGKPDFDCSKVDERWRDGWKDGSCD
Sequence of Cytochrome P450 2C19 (P33261 whole entry): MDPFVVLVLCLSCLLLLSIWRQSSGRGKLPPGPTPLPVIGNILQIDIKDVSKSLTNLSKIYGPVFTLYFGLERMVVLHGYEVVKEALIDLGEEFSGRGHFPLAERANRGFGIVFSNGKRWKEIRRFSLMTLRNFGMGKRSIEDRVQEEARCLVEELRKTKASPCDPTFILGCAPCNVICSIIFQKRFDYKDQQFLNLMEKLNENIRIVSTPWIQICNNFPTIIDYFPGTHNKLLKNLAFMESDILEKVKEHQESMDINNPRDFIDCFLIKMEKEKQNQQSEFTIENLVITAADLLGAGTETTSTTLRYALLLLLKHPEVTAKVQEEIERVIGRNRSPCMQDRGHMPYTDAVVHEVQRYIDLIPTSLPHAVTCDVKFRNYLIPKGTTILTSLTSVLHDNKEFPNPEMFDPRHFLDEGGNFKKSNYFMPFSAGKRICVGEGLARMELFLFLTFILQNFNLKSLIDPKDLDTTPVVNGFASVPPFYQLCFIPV
Sequence of Cytochrome P450 2D6 (P10635 whole entry): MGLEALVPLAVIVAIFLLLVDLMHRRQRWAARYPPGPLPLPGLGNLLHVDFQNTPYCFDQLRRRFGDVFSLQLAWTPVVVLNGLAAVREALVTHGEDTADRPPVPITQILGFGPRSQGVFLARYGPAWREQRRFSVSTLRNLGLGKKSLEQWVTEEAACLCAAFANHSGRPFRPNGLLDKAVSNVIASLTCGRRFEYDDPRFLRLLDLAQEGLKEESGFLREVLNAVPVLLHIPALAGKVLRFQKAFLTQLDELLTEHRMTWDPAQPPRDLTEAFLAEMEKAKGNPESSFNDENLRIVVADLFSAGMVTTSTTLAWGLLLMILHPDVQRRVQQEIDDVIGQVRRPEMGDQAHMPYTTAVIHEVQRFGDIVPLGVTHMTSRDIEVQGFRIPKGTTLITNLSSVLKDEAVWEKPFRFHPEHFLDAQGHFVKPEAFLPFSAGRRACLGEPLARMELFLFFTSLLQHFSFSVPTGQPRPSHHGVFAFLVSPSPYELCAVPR

Compound: COc1ccc(-n2c(N)c(C(=O)Nc3c(C)n(C)n(-c4ccccc4)c3=O)c3nc4ccccc4nc32)cc1
CC50 [2]: > 50 µM (active)

Compound: CCN1/C(=C2/SC(=S)NC2=O)Sc2ccccc21
AC50 [3]: 2.18 µM (active)

Compound: Cc1ccc(S(=O)(=O)c2c(N)n(NC(=O)c3ccccc3C)c3nc4ccccc4nc23)cc1
CC50 [2]: 22.9 µM (active)

Compound: CC(C)(C)OC(=O)NCCCCCNC(=O)c1[nH]cnc1C(=O)N[C@@H](Cc1ccccc1)C(=O)OCc1ccccc1
CC50 [2]: 12.5 µM (active)

Compound: O=C(O)c1cc2ccccc2cc1Nc1ccccc1
AC50 [3]: 1.49 µM (active)

Compound: N#CC1=C(N)OC2=C(CC/C2=C\c2ccc(F)cc2)C1c1ccc(F)cc1 (stereo not drawn)
CC50 [2]: 8.44 µM (active)

Compound: Clc1ccccc1C(Nc1ncccn1)Nc1ncccn1
AC50 (Cytochrome P450 2C19): inconclusive

Compound: CCc1c(C(=O)NCc2ccccc2Cl)[nH]c(C)c1C(C)=O
CC50 [2]: > 50 µM (active)

Compound: CCO[C@H]1OC(C(=O)Nc2ccccc2)=C[C@@H](c2ccc(C(F)(F)F)cc2)[C@@H]1CCCO
CC50 [2]: 17.5 µM (active)

Compound: Cc1c(C(=O)NCCSCc2c(F)cccc2Cl)cnn1-c1ccc(Cl)cc1
CC50 [2]: 16.8 µM (active)

Compound: O=[N+]([O-])c1ccc(/C=N/Nc2nc(N3CCCCCC3)nc(N3CCCCCC3)n2)o1
EC50 (Streptococcus): 2.35 µM (active) | EC50 [6]: > 60 µM (not active) | EC50 [7]: 0.504 µM (active) | CC50 [2]: 11.6 µM (active) | EC50 [8]: 0.197 µM (active)

Next, values leading:

IC50 [1]: 82.9 µM (active)
Compound: COc1ccc(N2CCN(c3ncccn3)CC2)cc1

EC50 [4]: > 300 µM (inconclusive) | EC50 [5]: > 300 µM (not active)
Compound: COc1ccccc1CCC(=O)OCc1csc(CC(=O)Nc2ccccc2C)n1

AC50 (Cytochrome P450 2C19; read-out: AC50): 14.1 µM (inconclusive)
Compound: NC(=O)C1CCN(C(=O)CN2C(=O)c3ccccc3S2(=O)=O)CC1

AC50 (Cytochrome P450 2C19; read-out: AC50): 7.94 µM (inconclusive)
Compound: COc1ccc(CCNC(=O)c2ccc3c(=O)n(Cc4ccco4)c(=S)[nH]c3c2)cc1OC

AC50 (Cytochrome P450 2C19; read-out: AC50): 20 µM (inconclusive)
Compound: COc1cccc(-c2nc(NCCN3CCOCC3)c3ccccc3n2)c1

AC50 [3]: 0.394 µM (active)
Compound: CCN(CCNC(=O)C1CCCN(S(=O)(=O)c2c[nH]cn2)C1)c1ccccc1 (stereo not drawn)

EC50 [4]: > 300 µM (not active) | EC50 [5]: > 300 µM (not active)
Compound: COC(=O)c1cccc(-n2c(C)cc(C=O)c2C)c1C

IC50 [1]: 90.9 µM (active)
Compound: CCN(CC)c1ccc(NC(=O)CN(C)Cc2cccs2)cc1

AC50 [3]: 0.477 µM (active)
Compound: CN1CC(=O)N(CC(=O)Nc2ccc(SC(F)F)cc2)C1=O

AC50 (Cytochrome P450 2D6): 25.1 µM (inconclusive) | AC50 (Cytochrome P450 2C19; read-out: AC50): 28.2 µM (inconclusive)
Compound: COc1cc(C(=O)NCCC(=O)NCc2ccc3c(c2)OCO3)cc(OC)c1OC

IC50 [1]: 69.6 µM (active)
Compound: CCOc1cc(/C=N/NC(=O)CCCC(=O)NC2CCCCC2)ccc1O

IC50 [1]: 76 µM (active)
Compound: CCOc1cc(/C=N\NC(=O)c2c(C)nc3ccccn23)ccc1O

IC50 [1]: 63.2 µM (active)
Compound: Cc1cc(C)nc(N/N=C/c2c[nH]c3ccccc23)n1

AC50 [3]: 2.73 µM (active)
Compound: O=C(O)CC/C(=N\Nc1ccccc1[N+](=O)[O-])c1cccs1

AC50 [3]: 0.098 µM (active)
Compound: CN1CCCC(CN2c3ccccc3Sc3ccccc32)C1 (stereo not drawn) [MEPAZINE ACETATE]
